Data set [1] relates to Mus musculus. The conditions noted are these: chronic; duration: 103 weeks; oral; diet; mortality.
Data set [2] concerns Rattus norvegicus. As to conditions: oral.
Data set [3] concerns Pontoscolex corethrurus. The conditions noted are these: acute; mortality.
For data set [4], the system named is Daphnia magna. As to conditions: acute; mortality.
The mark [5] stands for this setting: chronic, duration: 103 weeks, diet, histopathology: neoplastic.

≈ marks a conversion by molar mass, not a printed value.

As to `CC(=O)O[C@@H]1C[C@H](C)CC[C@H]1C(C)C` (racemic) [dl-Menthyl acetate], the figures for the NOAEL in data set [1] and in data set [2] (setting [5]) were 600 mg/kg-day and 375 mg/kg-day, respectively.
In data set [3], `CC(=O)OC1CCCCC1` [Cyclohexyl acetate] yielded an LC50 of 1150 mg/kg.
In turn, `CC(=O)O[C@@H]1C[C@H]2CC[C@]1(C)C2(C)C` [Isobornyl acetate] returned an NOAEL in data set [2] (subchronic, duration: 13 weeks, gavage, M/F, organ weight) of 15 mg/kg-day.
For `CC1CCC(C(C)C)C(O)C1` (stereo unspecified) [Menthol], the no-observed-adverse-effect level (NOAEL) in data set [1] is 600 mg/kg-day; in data set [2] (setting [5]) it was 375 mg/kg-day.
As for `CCCCCC1C(=O)CCC1CC(=O)OC` (stereo unspecified) [Methyl dihydrojasmonate], the LC50 in data set [3] was 1430 mg/kg. For the same compound, the no observed adverse effect level (NOAEL) in data set [2] (subchronic, duration: 13 weeks, diet, M/F, Sprague-Dawley, no effects) was determined as 100 mg/kg-day.
`CC(=O)/C=C/C1C(C)=CCCC1(C)C` (stereo not drawn) [alpha-Ionone] displayed an NOAEL in data set [2] (subchronic, duration: 13 weeks, diet, M/F, food consumption) of 10 mg/kg-day.
Compound `CC(=O)/C=C/C1C(C)=CCC(C)C1(C)C` (stereo not drawn) [alpha-Irone] displayed an LC50 in data set [4] of 0.513 mg/L (≈ 2.49 µM).
Take `CC(=O)/C=C/C1=C(C)CCCC1(C)C` [beta-Ionone]: the no observed adverse effect level (NOAEL) in data set [2] (subchronic, duration: 13 weeks, diet, M/F, body weight) is 10 mg/kg-day.

As usually defined, the NOAEL is the highest tested level that showed no adverse finding.

For the origin of these results see EPA's ToxValDB 9.5 (doi:10.2903/j.efsa.2016.4475).
